The values that follow are results of earlier work, collected in US8183241B2, “2-oxo-1-pyrrolidine derivatives” (UCB Pharma, S.A., priority 2005, dated 2012).

For this data set the following is noted: Eur. J. Pharmacol. (1992), 222, 193-203.

`CC[C@H](C(N)=O)N1CCCC1=O` [(R)-α-ethyl-2-oxo-1-pyrrolidine acetamide]: the “activity in the treatment of epilepsy” value is on record as “completely lacks activity”.
Regarding `CC[C@@H](C(N)=O)N1CCCC1=O` [Levetiracetam, (S)-α-ethyl-2-oxo-1-pyrrolidine acetamide], the “activity in the treatment of epilepsy” value is given as “effective in the treatment of epilepsy”.
